Among the data in patent publication US6745512B1 (priority 1990, dated 2004) are harmful organisms combated values, retold here.

Structures are written as SMILES.

For the experiment, the system named is harmful organisms such as smut (Ustilago nuda), Fusaria and Septoria nodorum. Briefly: combined use of low energy electrons with subsequent fungicidal treatment of the seeds. The following applies: low energy electrons followed by fungicidal treatment of the seeds; 15 g, 30 g/100 kg seeds.

With `Cc1oc(C)c(C(=O)Nc2ccccc2)c1C` [Methfuroxam], the harmful organisms combated lay within 95 to 100%.
